20 compounds from patent publication US20260308159A1, “BICYCLIC HETEROARYLAMIDES HAVING GPR68 MODULATING ACTIVITY” (RECURSION PHARMACEUTICALS, INC., priority 2023, published 2026) can be followed below.

The structures appear in SMILES notation. Bounds are passed on as bounds.

This test has as its target T1, human GPR68 (Homo sapiens, UniProt Q15743).
T1 construct: encoding full-length human GPR68 (uniprot ID: Q15743); expressed in transfected cells; host or cells: HEK293T
Kind of test: GPR68 Biochemical Assay (Promega GloSensor cAMP assay, GPR68 antagonism). It counts as cell-based. Conditions: HEK293T cells transiently expressing hGPR68, antagonism of pH 5.5 stimulated cAMP, 15 min, read-out: hGPR68 IC50. The method in brief:
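Readout is GloSensor cAMP luminescence after 15 min at room temperature, normalised between pH 5.5 stimulation and pH 8.0 minimum controls; IC50 fitted sigmoidally. Test compounds, up to 50 μM final (9-point half-log, 0.5% DMSO), were co-added with pH 5.5 buffer to HEK293T cells transiently expressing full-length human GPR68 plus GloSensor.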
Background: cAMP levels reflect the balance of adenylyl cyclase and phosphodiesterase activity.

T1 sequence (Q15743 whole entry): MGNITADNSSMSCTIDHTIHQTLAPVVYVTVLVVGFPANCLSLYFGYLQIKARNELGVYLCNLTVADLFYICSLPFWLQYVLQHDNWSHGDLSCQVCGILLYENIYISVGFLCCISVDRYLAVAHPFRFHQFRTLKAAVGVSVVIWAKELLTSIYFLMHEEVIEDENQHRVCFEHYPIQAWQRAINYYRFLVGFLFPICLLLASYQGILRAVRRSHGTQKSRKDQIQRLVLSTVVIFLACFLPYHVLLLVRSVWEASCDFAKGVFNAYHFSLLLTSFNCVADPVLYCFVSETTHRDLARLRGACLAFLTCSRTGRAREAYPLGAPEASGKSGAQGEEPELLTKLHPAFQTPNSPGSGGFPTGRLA

As a reminder, the IC50 is the concentration at which inhibition is half-maximal. As to `NC(=O)c1c(C2CC2)nc2c(C(=O)NC3CS(=O)(=O)c4ccccc43)ccnn12` (centres unmarked) [Compound 222, 2-cyclopropyl-N8-(1,1-dioxo-2,3-dihydrobenzothiophen-3-yl) imidazo[1,2-b]pyridazine-3,8-dicarboxamide], the IC50 is below 50 nM. The same measure for `COCc1nc2c(C(=O)NC3CS(=O)(=O)c4ccccc43)ccnn2c1C(N)=O` (centres unmarked) [Compound 223, N8-(1,1-dioxo-2,3-dihydrobenzothiophen-3-yl)-2-(methoxymethyl)imidazo[1,2-b]pyridazine-3,8-dicarboxamide]: below 50 nM; for `COCc1nn2c(C(=O)N[C@H]3C[C@H](OC(F)(F)F)C3)ccnc2c1C(N)=O` [Compound 224, 2-(methoxymethyl)-N7-[trans-3-(trifluoromethoxy)cyclobutyl]pyrazolo[1,5-a]pyrimidine-3,7-dicarboxamide]: 50 to 500 nM; for `COCc1nn2c(C(=O)NC3CS(=O)(=O)C3)ccnc2c1C(N)=O` [Compound 225, N7-(1,1-dioxothietan-3-yl)-2-(methoxymethyl)pyrazolo[1,5-a]pyrimidine-3,7-dicarboxamide]: below 50 nM. The same measure for `COCc1nn2c(C(=O)NC3CCC(F)(F)c4ccccc43)cc(C)nc2c1C(N)=O` (centres unmarked) [Compound 226, N7-(4,4-difluorotetralin-1-yl)-2-(methoxymethyl)-5-methyl-pyrazolo[1,5-a]pyrimidine-3,7-dicarboxamide]: below 50 nM. The same measure for `COCc1nn2c(C(=O)NC3Cc4ccccc4C3)cc(C)nc2c1C(N)=O` [Compound 227, N7-indan-2-yl-2-(methoxymethyl)-5-methyl-pyrazolo[1,5-a]pyrimidine-3,7-dicarboxamide]: below 50 nM. With `CC(C)c1nn2c(C(=O)NC3CS(=O)(=O)c4ccccc43)ccnc2c1C(N)=O` (centres unmarked) [Compound 228, N7-(1,1-dioxo-2,3-dihydrobenzothiophen-3-yl)-2-isopropyl-pyrazolo[1,5-a]pyrimidine-3,7-dicarboxamide], the concentration for half-maximal inhibition (IC50) is below 50 nM.

For the compound `NC(=O)c1c(C2CC2)nn2c(C(=O)NC3CCS(=O)(=O)c4ccccc43)ccnc12` (centres unmarked) [Compound 229, 2-cyclopropyl-N7-(1,1-dioxo-3,4-dihydro-2H-thiochromen-4-yl)pyrazolo[1,5-a]pyrimidine-3,7-dicarboxamide], the 50% inhibitory concentration (IC50) is below 50 nM. On to `CC(C)c1nn2c(C(=O)NC3CCS(=O)(=O)c4ccccc43)ccnc2c1C(N)=O` (centres unmarked) [Compound 230, N7-(1,1-dioxo-3,4-dihydro-2H-thiochromen-4-yl)-2-isopropyl-pyrazolo[1,5-a]pyrimidine-3,7-dicarboxamide], for which the IC50 was below 50 nM. The same measure for `NC(=O)c1c(C2CC2)nn2c(C(=O)NC3CS(=O)(=O)c4ccccc43)ccnc12` (centres unmarked) [Compound 231, 2-cyclopropyl-N7-(1,1-dioxo-2,3-dihydrobenzothiophen-3-yl)pyrazolo[1,5-a]pyrimidine-3,7-dicarboxamide]: below 50 nM.

For the compound `COCc1nn2c(C(=O)NC3CC(F)(F)c4ccccc43)cc(C)nc2c1C(N)=O` (centres unmarked) [Compound 232, N7-(3,3-difluoroindan-1-yl)-2-(methoxymethyl)-5-methyl-pyrazolo[1,5-a]pyrimidine-3,7-dicarboxamide], the IC50 was below 50 nM.

Regarding `COCc1nn2c(C(=O)N[C@@H]3CCS(=O)(=O)c4ccccc43)ccnc2c1C(N)=O` [Compound 233, N7-[(4R)-1,1-dioxo-3,4-dihydro-2H-thiochromen-4-yl]-2-(methoxymethyl)pyrazolo[1,5-a]pyrimidine-3,7-dicarboxamidfe], the IC50 is below 50 nM. In the case of `NC(=O)c1c(C2CC2)nn2c(C(=O)N[C@@H]3CCS(=O)(=O)c4ccccc43)ccnc12` [Compound 235, 2-cyclopropyl-N7-[(4R)-1,1-dioxo-3,4-dihydro-2H-thiochromen-4-yl]pyrazolo[1,5-a]pyrimidine-3,7-dicarboxamide] it was below 50 nM; in that of `NC(=O)c1c(C2CC2)nn2c(C(=O)N[C@H]3CCS(=O)(=O)c4ccccc43)ccnc12` [Compound 236, 2-cyclopropyl-N7-[(4S)-1,1-dioxo-3,4-dihydro-2H-thiochromen-4-yl]pyrazolo[1,5-a]pyrimidine-3,7-dicarboxamide], below 50 nM; in that of `COCc1nn2c(C(=O)NC3CC(F)(F)c4ccc(F)cc43)ccnc2c1C(N)=O` (centres unmarked) [Compound 237, 2-(Methoxymethyl)-N7-(3,3,6-trifluoroindan-1-yl)pyrazolo[1,5-a]pyrimidine-3,7-dicarboxamide], below 50 nM. In the case of `COCc1nn2c(C(=O)N[C@@H]3COc4c3ccc(F)c4F)ccnc2c1C(N)=O` [Compound 238, N7-[(3S)-6,7-difluoro-2,3-dihydrobenzofuran-3-yl]-2-(methoxymethyl)pyrazolo[1,5-a]pyrimidine-3,7-dicarboxamide] it was below 50 nM. In the case of `COCc1nn2c(C(=O)NC3CCC(F)(F)c4cc(F)ccc43)ccnc2c1C(N)=O` (centres unmarked) [Compound 239, 2-(methoxymethyl)-N7-(4,4,6-trifluorotetralin-1-yl)pyrazolo[1,5-a]pyrimidine-3,7-dicarboxamide] it was below 50 nM. Consider `COCc1nn2c(C(=O)NC3CCC(F)(F)CC3)cc(C)nc2c1C(N)=O` [Compound 240, N7-(4,4-difluorocyclohexyl)-2-(methoxymethyl)-5-methyl-pyrazolo[1,5-a]pyrimidine-3,7-dicarboxamide], for which the IC50 was below 50 nM. The same measure for `COCc1nn2c(C(=O)NC3CCS(=O)(=O)c4ccccc43)cc(C)nc2c1C(N)=O` (centres unmarked) [Compound 241, N7-(1,1-dioxo-3,4-dihydro-2H-thiochromen-4-yl)-2-(methoxymethyl)-5-methyl-pyrazolo[1,5-a]pyrimidine-3,7-dicarboxamide]: 50 to 500 nM.

For `Cc1cc(C(=O)NC2CCS(=O)(=O)c3ccccc32)n2nc(C3CC3)c(C(N)=O)c2n1` (centres unmarked) [Compound 242, 2-cyclopropyl-N7-(1,1-dioxo-3,4-dihydro-2H-thiochromen-4-yl)-5-methyl-pyrazolo[1,5-a]pyrimidine-3,7-dicarboxamide], the half-maximal inhibitory concentration (IC50) was below 50 nM.
